Data reported in ChEMBL document CHEMBL4811263, “Tulipiferamide A, an Alkamide from Liriodendron tulipifera, Exhibits an Anti-Inflammatory Effect via Targeting IKKβ Phosphorylation” (J Nat Prod, 2021).
Each block holds one molecule with its values, some of them ahead of it. The source made the active and inactive calls. The calls are words filed in the database; no cut-off is given here.

Columns and labels:
[1] = system: RAW264.7; assay: Antiinflammatory activity in mouse RAW264.7 assessed as inhibition of LPS-induced NO production preincubated for 30 mins followed by LPS stimulation measured after 24 hrs by Griess reagent based assay; format: functional, cell-based
[2] = Inhibition of LPS-indued NF-kappaB activation in mouse RAW264.7 cells preincubated for 30 mins followed by LPS stimulation and measured after 10 hrs by luciferase assay; format: cell-based
[3] = system: HEK293; assay: Inhibition of IKK phosphorylation in HEK293 cells transfected with IKKbeta by Western blotting analysis; format: cell-based; conditions: Homo sapiens
[4] = target: T1, Inhibitor of nuclear factor kappa-B kinase subunit alpha (Mus musculus) (UniProt Q60680); assay: Inhibition of IKKalpha mediated NF-kappaB activation in mouse RAW264.7 cells assessed as reduction in LIGHT-induced processing of p100 to p52 by Western blotting analysis; format: cell-based
T1 sequence (whole entry): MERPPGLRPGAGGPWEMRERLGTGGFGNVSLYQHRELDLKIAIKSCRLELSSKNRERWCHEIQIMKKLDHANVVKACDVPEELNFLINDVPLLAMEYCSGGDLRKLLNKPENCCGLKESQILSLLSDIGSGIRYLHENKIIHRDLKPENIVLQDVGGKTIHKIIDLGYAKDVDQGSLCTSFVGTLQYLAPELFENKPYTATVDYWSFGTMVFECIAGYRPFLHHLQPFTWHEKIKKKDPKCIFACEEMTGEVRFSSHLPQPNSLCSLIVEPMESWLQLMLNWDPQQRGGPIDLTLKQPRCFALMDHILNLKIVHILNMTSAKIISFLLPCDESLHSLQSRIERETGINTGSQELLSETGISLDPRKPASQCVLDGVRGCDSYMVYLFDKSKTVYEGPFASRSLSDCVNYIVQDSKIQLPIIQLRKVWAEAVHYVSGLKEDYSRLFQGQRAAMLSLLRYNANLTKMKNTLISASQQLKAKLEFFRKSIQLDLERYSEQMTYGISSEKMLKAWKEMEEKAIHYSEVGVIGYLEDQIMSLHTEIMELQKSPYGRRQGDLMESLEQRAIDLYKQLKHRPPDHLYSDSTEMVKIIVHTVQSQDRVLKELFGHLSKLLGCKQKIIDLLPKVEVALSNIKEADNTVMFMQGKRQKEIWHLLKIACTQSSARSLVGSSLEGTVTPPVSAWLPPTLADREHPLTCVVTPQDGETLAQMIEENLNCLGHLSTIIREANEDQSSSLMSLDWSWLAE

[5] = system: RAW264.7; assay: Antiinflammatory activity in mouse RAW264.7 cells assessed as inhibition of LPS-induced iNOS protein expression at 30 uM preincubated for 30 mins followed by LPS stimulation by Western blot analysis; format: functional, cell-based
[6] = target: T2, Inhibitor of nuclear factor kappa-B kinase subunit beta (Mus musculus) (UniProt O88351); assay: Inhibition of IKKbeta mediated NF-kappaB activation in mouse RAW264.7 cells assessed as inhibition of TWEAK-induced p65 phosphorylation on serine 536 by Western blotting analysis; format: cell-based
T2 sequence (whole entry): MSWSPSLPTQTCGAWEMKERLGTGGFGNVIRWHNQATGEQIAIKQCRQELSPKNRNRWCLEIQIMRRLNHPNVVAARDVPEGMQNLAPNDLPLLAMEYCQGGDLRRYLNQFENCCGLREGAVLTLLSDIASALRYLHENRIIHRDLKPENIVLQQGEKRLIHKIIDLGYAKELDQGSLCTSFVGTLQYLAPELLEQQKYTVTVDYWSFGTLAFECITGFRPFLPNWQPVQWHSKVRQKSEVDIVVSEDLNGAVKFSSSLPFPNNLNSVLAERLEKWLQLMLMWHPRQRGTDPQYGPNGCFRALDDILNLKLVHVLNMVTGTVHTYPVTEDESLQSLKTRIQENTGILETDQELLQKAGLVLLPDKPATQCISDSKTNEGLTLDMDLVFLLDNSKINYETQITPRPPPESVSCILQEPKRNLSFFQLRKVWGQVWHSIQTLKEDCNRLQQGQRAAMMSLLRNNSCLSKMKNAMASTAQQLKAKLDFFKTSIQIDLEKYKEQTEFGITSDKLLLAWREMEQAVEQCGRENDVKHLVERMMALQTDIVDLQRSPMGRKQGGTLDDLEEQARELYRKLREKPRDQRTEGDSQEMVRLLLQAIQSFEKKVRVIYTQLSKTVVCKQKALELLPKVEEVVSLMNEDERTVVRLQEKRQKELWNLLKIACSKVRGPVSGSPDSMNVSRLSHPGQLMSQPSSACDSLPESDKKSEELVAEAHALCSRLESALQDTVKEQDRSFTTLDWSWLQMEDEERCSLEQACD

[7] = system: RAW264.7; assay: Inhibition of NF-kappaB activation in mouse RAW264.7 cells assessed as inhibition of LPS-induced IKKbeta phosphorylation at 30 uM preincubated for 30 mins followed by LPS stimulation by Western blotting analysis; format: cell-based
[8] = system: RAW264.7; assay: Antiinflammatory activity in mouse RAW264.7 cells assessed as inhibition of LPS-induced COX-2 protein expression at 30 uM preincubated for 30 mins followed by LPS stimulation by Western blot analysis; format: functional, cell-based
[9] = system: RAW264.7; assay: Antiinflammatory activity in mouse RAW264.7 cells assessed as inhibition of LPS-induced IL6 mRNA expression at 30 uM preincubated for 30 mins followed by LPS stimulation by RT-PCR analysis; format: functional, cell-based
[10] = target: T1, Inhibitor of nuclear factor kappa-B kinase subunit alpha (Mus musculus); assay: Inhibition of IKKalpha mediated NF-kappaB activation in mouse RAW264.7 cells assessed as TWEAK-induced degradation of TRAF2 by Western blotting analysis; format: cell-based
[11] = system: RAW264.7; assay: Antiinflammatory activity in mouse RAW264.7 cells assessed as inhibition of LPS-induced TNFalpha mRNA expression at 30 uM preincubated for 30 mins followed by LPS stimulation by RT-PCR analysis; format: functional, cell-based
[12] = target: T1, Inhibitor of nuclear factor kappa-B kinase subunit alpha (Mus musculus); assay: Inhibition of IKKalpha mediated NF-kappaB activation in mouse RAW264.7 cells assessed as reduction TWEAK-induced processing of p100 to p52 by Western blotting analysis; format: cell-based
[13] = target: T1, Inhibitor of nuclear factor kappa-B kinase subunit alpha (Mus musculus); assay: Inhibition of IKKalpha mediated NF-kappaB activation in mouse RAW264.7 cells assessed as TWEAK-induced degradation of TRAF3 by Western blotting analysis; format: cell-based
[14] = system: RAW264.7; assay: Inhibition of MAPK in mouse RAW264.7 cells assessed as inhibition of LPS-induced p38 phosphorylation at 30 uM preincubated for 30 mins followed by LPS stimulation by Western blotting analysis; format: cell-based
[15] = system: RAW264.7; assay: Inhibition of MAPK in mouse RAW264.7 cells assessed as inhibition of LPS-induced JNK phosphorylation at 30 uM preincubated for 30 mins followed by LPS stimulation by Western blotting analysis; format: cell-based
[16] = system: RAW264.7; assay: Antiinflammatory activity in mouse RAW264.7 cells assessed as inhibition of LPS-induced iNOS mRNA expression at 30 uM preincubated for 30 mins followed by LPS stimulation by RT-PCR analysis; format: functional, cell-based
[17] = system: RAW264.7; assay: Inhibition of NF-kappaB activation in mouse RAW264.7 cells assessed as inhibition of LPS-induced relA phosphorylation at 30 uM preincubated for 30 mins followed by LPS stimulation by Western blotting analysis; format: cell-based
[18] = system: RAW264.7; assay: Antiinflammatory activity in mouse RAW264.7 cells assessed as inhibition of LPS-induced IL-1beta protein expression at 30 uM preincubated for 30 mins followed by LPS stimulation by Western blot analysis; format: functional, cell-based
[19] = system: RAW264.7; assay: Antiinflammatory activity in mouse RAW264.7 cells assessed as inhibition of LPS-induced COX-2 mRNA expression at 30 uM preincubated for 30 mins followed by LPS stimulation by RT-PCR analysis; format: functional, cell-based
[20] = system: RAW264.7; assay: Antiinflammatory activity in mouse RAW264.7 cells assessed as inhibition of LPS-induced IL-1beta mRNA expression at 30 uM preincubated for 30 mins followed by LPS stimulation by RT-PCR analysis; format: functional, cell-based
[21] = system: RAW264.7; assay: Inhibition of NF-kappaB activation in mouse RAW264.7 cells assessed as inhibition of LPS-induced IKKalpha phosphorylation at 30 uM preincubated for 30 mins followed by LPS stimulation by Western blotting analysis; format: cell-based
[22] = system: RAW264.7; assay: Inhibition of MAPK in mouse RAW264.7 cells assessed as inhibition of LPS-induced ERK phosphorylation at 30 uM preincubated for 30 mins followed by LPS stimulation by Western blotting analysis; format: cell-based
[23] = system: RAW264.7; assay: Inhibition of NF-kappaB activation in mouse RAW264.7 cells assessed as inhibition of LPS-induced IkappaBalpha phosphorylation at 30 uM preincubated for 30 mins followed by LPS stimulation by Western blotting analysis; format: cell-based

Compound: C=CCc1cc(OC)c(O)c(OC)c1 [METHOXYEUGENOL]
- IC50 [1]: > 50 µM

Compound: COc1cc(/C=C/C(=O)NCCc2ccc(O)cc2)ccc1O [N-TRANS-FERULOYL TYRAMINE]
- IC50 [1]: > 50 µM

Compound: O=Cc1ccc(O)cc1 [4-HYDROXYBENZALDEHYDE]
- IC50 [1]: > 50 µM

Compound: CCCCC/C=C\CCC(=O)NCCc1ccccc1
- IC50 [1]: > 50 µM

Compound: CCCCC/C=C\C=C\C(=O)NCCc1ccccc1
- IC50 [2]: 21.6 µM
- inhibition [3]: Active
- inhibition [4]: inactive
- Activity [5]: Active
- inhibition [6]: Active
- inhibition [7]: Active
- Activity [8]: Active
- Activity [9]: Active
- inhibition [10]: inactive
- Activity [11]: Active
- inhibition [12]: inactive
- inhibition [13]: inactive
- inhibition [14]: inactive
- inhibition [15]: inactive
- Activity [16]: Active
- inhibition [17]: Active
- Activity [18]: Active
- Activity [19]: Active
- Activity [20]: Active
- IC50 [1]: 13.3 µM
- inhibition [21]: Active
- inhibition [22]: inactive
- inhibition [23]: Active

Compound: C=C1C(=O)O[C@@H]2/C=C(\C)CC/C=C(\C)CC[C@@H]12 [COSTUNOLIDE]
- IC50 [1]: > 50 µM

Compound: O=C1c2ccccc2-c2c3c(cc4ccnc1c24)OCO3 [LIRIODENINE]
- IC50 [1]: 10.5 µM

Compound: CC(=O)N(C)CCc1ccccc1
- IC50 [1]: > 50 µM

Compound: NC(=O)Nc1sc(-c2ccc(F)cc2)cc1C(N)=O
- IC50 [2]: 0.022 µM

Now from value to molecule:

- IC50 [1]: 19.8 µM
Compound: C=C1C(=O)O[C@@H]2/C=C(\C)CC/C=C(\C)C[C@@H](OC(C)=O)[C@@H]12

- IC50 [1]: > 50 µM
Compound: COc1cc2oc(=O)ccc2c(OC)c1OC [5,6,7-TRIMETHOXYCOUMARIN]

- IC50 [1]: > 50 µM
Compound: COc1cc([C@H]2OC[C@H]3[C@@H]2CO[C@@H]3c2cc(OC)c(O)c(OC)c2)cc(OC)c1O [SYRINGARESINOL]

- IC50 [2]: 15.5 µM
- IC50 [1]: 21.6 µM
Compound: COc1cc(O)c2c(c1)O[C@H](c1ccc(O)cc1)CC2=O [SAKURANETIN]

- IC50 [1]: > 50 µM
Compound: C=CCc1cc(OC)c(O[C@H](C)Cc2cc(OC)c3c(c2)OCO3)c(OC)c1

- IC50 [1]: > 50 µM
Compound: COc1cc(C[C@H]2CO[C@H](c3ccc(O)c(OC)c3)[C@H]2CO)ccc1O [LARICIRESINOL]

- IC50 [2]: 24.5 µM
- IC50 [1]: 14 µM
Compound: COc1c2c3c(c(OC)c1OC)-c1ccccc1C[C@H]3N(C(C)=O)CC2

- IC50 [1]: > 50 µM
Compound: C=CCc1cc(OC)c(OC(C)Cc2cc(OC)c(OC)c(OC)c2)c(OC)c1 (racemic)
